Reference: PMC12278908, “Genome integrity sensing by the broad-spectrum Hachiman antiphage defense complex” (Cell, 2024)

Molecular target: T1, HamAB (Escherichia coli, UniProt A0A426EXV0)
T1 construct: gene DU321_04165; native locus coexpressed in E. coli BL21-AI; only HamA tagged 10xHis-MBP-TEV, TEV-treated; 1:1 heterodimer; with Hachiman antiphage defense system nuclease HamA (DUF1837 domain-containing protein)
T1 sequence (A0A426EXV0 1-1174): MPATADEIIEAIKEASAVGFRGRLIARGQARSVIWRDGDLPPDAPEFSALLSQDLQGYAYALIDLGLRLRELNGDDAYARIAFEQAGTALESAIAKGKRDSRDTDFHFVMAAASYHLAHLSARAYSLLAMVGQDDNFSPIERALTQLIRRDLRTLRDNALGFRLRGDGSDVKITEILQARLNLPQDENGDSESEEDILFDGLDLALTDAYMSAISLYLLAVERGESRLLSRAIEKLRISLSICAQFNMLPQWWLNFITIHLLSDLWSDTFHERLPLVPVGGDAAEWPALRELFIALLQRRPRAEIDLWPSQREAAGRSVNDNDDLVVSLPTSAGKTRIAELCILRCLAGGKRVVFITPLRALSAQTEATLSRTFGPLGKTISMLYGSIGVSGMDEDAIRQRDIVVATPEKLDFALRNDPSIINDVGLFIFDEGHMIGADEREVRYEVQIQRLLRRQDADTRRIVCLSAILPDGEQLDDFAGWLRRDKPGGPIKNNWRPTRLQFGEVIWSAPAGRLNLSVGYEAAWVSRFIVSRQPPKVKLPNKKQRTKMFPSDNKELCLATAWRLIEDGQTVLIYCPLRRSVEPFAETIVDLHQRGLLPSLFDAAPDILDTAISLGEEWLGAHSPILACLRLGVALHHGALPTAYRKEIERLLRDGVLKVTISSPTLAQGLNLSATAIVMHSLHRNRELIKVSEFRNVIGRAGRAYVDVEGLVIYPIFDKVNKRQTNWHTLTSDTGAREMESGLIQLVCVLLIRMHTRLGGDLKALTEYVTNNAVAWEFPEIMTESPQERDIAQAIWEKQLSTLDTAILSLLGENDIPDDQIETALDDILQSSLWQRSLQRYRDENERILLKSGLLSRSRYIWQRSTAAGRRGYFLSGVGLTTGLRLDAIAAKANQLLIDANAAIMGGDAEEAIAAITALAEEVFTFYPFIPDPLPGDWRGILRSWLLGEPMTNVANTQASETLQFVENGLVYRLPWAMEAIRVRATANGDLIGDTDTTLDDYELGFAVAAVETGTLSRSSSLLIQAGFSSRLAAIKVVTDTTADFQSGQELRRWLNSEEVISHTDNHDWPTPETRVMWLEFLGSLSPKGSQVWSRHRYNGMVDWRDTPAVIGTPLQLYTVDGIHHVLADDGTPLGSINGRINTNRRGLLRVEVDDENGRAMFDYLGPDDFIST
T1 sequence (Q6XGE5 1-259 partner): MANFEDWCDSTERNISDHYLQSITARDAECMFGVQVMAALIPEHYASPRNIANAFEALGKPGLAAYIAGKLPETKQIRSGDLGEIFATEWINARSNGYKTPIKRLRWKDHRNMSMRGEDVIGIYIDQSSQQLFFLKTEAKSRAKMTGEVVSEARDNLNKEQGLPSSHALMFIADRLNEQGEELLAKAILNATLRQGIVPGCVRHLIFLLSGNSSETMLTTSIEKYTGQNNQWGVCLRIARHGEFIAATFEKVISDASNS
Assay: malachite green phosphate release ATPase assay
Type: biochemical
Settings: with or without supercoiled plasmid DNA; 1 mM ATP, 2 mM MgSO4, pH 8.8, 37 °C

Structure (SMILES): Nc1ncnc2c1ncn2[C@@H]1O[C@H](COP(=O)(O)OP(=O)(O)OP(=O)(O)O)[C@@H](O)[C@H]1O [ATP]
- malachite green phosphate release ATPase assay: ATPase assays with HamB, HamAB, and HamA*B in the presence of plasmid DNA
